{
  "source": "paper PMC9820345",
  "about": "“Metal Complexes of a 5-Nitro-8-Hydroxyquinoline-Proline Hybrid with Enhanced Water Solubility Targeting Multidrug Resistant Cancer Cells” (International Journal of Molecular Sciences, 2022)",
  "key": {"[1]": {"set-up": "method as in earlier work", "conditions": "pH 7.40, cited from earlier work"}, "[2]": {"conditions": "pH 7.4, cited from earlier work"}, "[3]": {"molecular_target": "T1, HSA site I (Trp-214) (Homo sapiens, UniProt P02768)", "T1 construct": "purchased Sigma-Aldrich (Darmstadt, Germany) A8763", "T1 sequence (P02768 25-609)": "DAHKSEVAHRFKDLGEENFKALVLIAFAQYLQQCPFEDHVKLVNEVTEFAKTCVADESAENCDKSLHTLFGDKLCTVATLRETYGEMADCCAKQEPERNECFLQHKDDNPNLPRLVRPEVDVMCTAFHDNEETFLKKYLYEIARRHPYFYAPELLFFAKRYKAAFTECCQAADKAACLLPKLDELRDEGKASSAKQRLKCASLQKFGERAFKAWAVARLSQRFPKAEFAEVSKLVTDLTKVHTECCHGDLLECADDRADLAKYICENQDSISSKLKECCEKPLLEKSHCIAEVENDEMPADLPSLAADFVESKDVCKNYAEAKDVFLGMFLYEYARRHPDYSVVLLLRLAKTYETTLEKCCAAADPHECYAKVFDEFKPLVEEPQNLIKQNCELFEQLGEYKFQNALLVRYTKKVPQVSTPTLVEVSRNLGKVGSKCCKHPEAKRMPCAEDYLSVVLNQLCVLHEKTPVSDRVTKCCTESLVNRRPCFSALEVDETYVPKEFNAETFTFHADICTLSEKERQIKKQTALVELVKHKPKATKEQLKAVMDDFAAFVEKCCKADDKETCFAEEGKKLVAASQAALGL", "set-up": "method as in PMID 32500882", "conditions": "cited from earlier work"}, "[4]": {"molecular_target": "T2, HSA site II (Homo sapiens, UniProt P02768)", "T2 construct": "purchased Sigma-Aldrich (Darmstadt, Germany) A8763", "T2 sequence (P02768 25-609)": "as above", "set-up": "method as in PMID 32500882", "conditions": "cited from earlier work"}, "[5]": {"tested_on": "Colo205", "set-up": "method as in PMID 32500882", "conditions": "72 h exposure; cited from earlier work"}, "[6]": {"tested_on": "Colo320", "set-up": "method as in PMID 32500882", "conditions": "cited from earlier work; for IC50: 72 h exposure; for Selectivity ratio IC50 (Colo205)/IC50 (Colo320): calculated from IC50 values taken from ref 12"}, "[7]": {"conditions": "cited from earlier work"}, "[8]": {"assay": "Proton dissociation constants (pKa) of the ligand by pH-potentiometric, UV-vis and 1H NMR titrations", "assay_type": "physicochemical", "conditions": "pH 7.4", "protocol": "Characterization of the protonation/deprotonation equilibrium processes of a bioactive molecule is important to reveal its actual chemical form and charge at a given pH. The proton dissociation constant (Ka) is a key physico-chemical parameter since it has an impact on many biopharmaceutical characteristics such as lipophilicity, water solubility, and albumin binding, which in turn directly influences pharmacokinetics. The pKa values of the protonated HQNO2-L-Pro were determined by pH-potentiometric, UV-vis (Figure 1a), and ^1H NMR spectroscopic titrations (Table 1).\nThe pH-potentiometric measurements were carried out at 25.0 ± 0.1 °C in water in the pH range between 2.0 and 11.5 at a constant ionic strength of 0.2 M KNO3. The titrations were performed in a carbonate-free KOH solution (0.20 or 0.10 M). The exact concentrations of HNO3, HCl, and KOH solutions were always determined by pH-potentiometric titrations. An Orion 710A pH-meter equipped with a Metrohm combined electrode (type 6.0234.100) and a Metrohm 665 Dosimat burette were used for the measurements. […] The average water ionization constant (pKw) was determined as 13.76 ± 0.01, which is in good agreement with the literature data. In the case of the titrations in 30% (v/v) DMSO/H2O, the calibration of the pH-potentiometric system was conducted as in our former works. Samples were degassed by bubbling purified argon through them for about 10 min prior to the measurements, and the inert gas was also passed over the solutions during the titrations. Stoichiometry of the species and their equilibrium constants were obtained similarly to that performed in our previous works, with the use of computer program Hyperquad2013 [50].\nAn Agilent Cary 8454 diode array spectrophotometer (Santa Clara, CA, USA) was used to obtain UV-vis spectra in the wavelength range 200–1000 nm, while spectra were recorded for the Fe(II)-containing samples using an Avantes (Avantes B.V., Apeldoorn, The Nederlands) AvaSpec-ULS2048CL-EVO spectrometer with an AvaLight-DHc light source and FDP-7UVIR200-2-VAR transmission dip probe. The titrations for the Fe(II)-containing samples were performed in a laboratory glove box (GP(Campus), Jacomex) (O2 content ≤ 1 ppm). The path length (ℓ) was 1 cm in most cases (the actual ℓ is always indicated in the legends of the figures). The concentrations of the ligands and complexes were between 40 and 200 µM, and 0.2 M KNO3 for the organometallic complexes or 0.1 M KCl for the Fe(II/III), Cu(II), and Zn(II) complexes were used to adjust the constant ionic strength. For HSA containing samples, complex concentrations were 50 µM, and 0.5, and 2 equiv. biomolecules were added for kinetic studies, respectively. For HSA model containing samples, complex concentrations were 50 µM, and the model concentrations were 0–150 µM and 0–500 µM, respectively, and the pH was 7.4 (PBS’). Spectra were always background and baseline corrected. The computer program HypSpec was used to obtain stability constants. Hydrolysis constants of the Fe(III), Fe(II), RuCym, and RhCp* species were included in the speciation models (see Table S4 with the data taken from References).\nThe Bruker Avance III HD Ascend 500 Plus instrument (Billerica, MA, USA) was used for NMR studies. ^1H NMR spectroscopic measurements were carried out with a WATERGATE water suppression pulse scheme in the presence of 10% (v/v) D2O/H2O in most cases. DSS internal standard was added to samples to obtain reference peaks. ^1H NMR titrations were carried out for the ligand alone, and for the organometallic complexes in the presence of 0.2 M KNO3. With the AHA and FHA model peptides, the measurements were performed at pH 7.4 (PBS’) at 0.5 or 1 mM metal complex concentrations, and 1:1, 1:2 or 2:1 peptide-to-metal complex ratios were applied. NMR titrations were also performed for the Zn(II)-ligand systems using 0.1 M KCl ionic strength. […]"}, "[9]": {"assay": "Aqueous solubility at physiological pH (S7.4)", "assay_type": "physicochemical", "conditions": "pH 7.4"}, "[10]": {"tested_on": "MES-SA", "assay": "In vitro cytotoxicity, MES-SA cells (fluorescent protein readout)", "assay_type": "cell-based, human", "conditions": "144 h exposure", "excerpt": "(§1) Cell lines: all cell culture reagents were obtained from Sigma-Aldrich; plasticware was purchased from Sarstedt (Nümbrecht, Germany); Human colon Colo205 (chemo-sensitive, ATCC-CCL-222) and Colo320 (Pgp/MDR1-expressing, doxorubicin-resistant, ATCC-CCL-220.1) adenocarcinoma cell lines were purchased from LGC Promochem, Teddington, UK; MES-SA and MES-SA/Dx5 uterine sarcoma cell lines were obtained from ATCC, where they were characterized by DNA fingerprinting. The expression of the Pgp efflux pump of MES-SA/Dx5 was proven by Western blot analysis in our former report, and was also reported for the Colo320 cells. The MES-SA and MES-SA/Dx5 cells used in this study were previously engineered to express the fluorescent proteins mCherry and eGFP, respectively, by lentiviral transduction.\n(§2) MES-SA cell lines were maintained in DMEM, supplemented with 10% fetal bovine serum, 5 mmol/L glutamine, and 50 units/mL penicillin and streptomycin. Cells were tested and resulted negative for mycoplasma contamination with the MycoAlert mycoplasma detection Kit (Lonza Group, Basel, Switzerland). One week prior to the cytotoxicity assays, Dx5 eGFP cells were selected in 500 nM doxorubicin for one passage to ensure the overexpression of P-glycoprotein.\n(§3) Cytotoxicity assays: The tested compounds were dissolved in PBS buffer to prepare 5 mM stock solutions, which were diluted in complete culture medium.\n(§4) In the case of the MES-SA and MES-SA/Dx5 cells, cell suspensions of the fluorescent cell lines were pre-mixed in a 1:1 ratio and seeded in 20 µL medium in a density of 2500 cells/well (1250 cells/well each) in a 384-well plate. After an overnight incubation, a serial dilution of the compounds was added to the plate in a final volume of 60 µL. The P-gp inhibitor tariquidar was added to the cells 15 min prior to the test compounds. After 144 h of incubation, plates were measured for the fluorescent intensity of mCherry (EX/EM: 585 nm/610 nm) and eGFP (EX/EM: 485 nm/510 nm). Cell seeding, aspiration of medium, and addition of drugs were performed by a Hamilton StarLet automated liquid handling robot.\n(§5) Inhibition of the cell growth (expressed as IC50: inhibitory concentration that reduces by 50% the growth of the cells exposed to the tested compounds) was determined from the sigmoid curve where 100 − ((ODsample − ODmedium control)/(ODcell control − ODmedium control)) × 100 values were plotted against the logarithm of compound concentrations. Curves for the data obtained on Colo205 and Colo320 cells were fitted by GraphPad Prism software (2021, Graphpad Software, version 7.00, San Diego, CA, USA) using the sigmoidal dose–response model (comparing variable and fixed slopes). From the MES-SA cell data, the IC50 values were calculated by our custom program, written by J. Sessler in C#. The p values were calculated by Student’s t-test. The IC50 values were always obtained from at least three independent experiments."}, "[11]": {"tested_on": "MES-SA/Dx5", "assay": "In vitro cytotoxicity, MES-SA/Dx5 cells (fluorescent protein readout)", "assay_type": "cell-based, human", "excerpt": "as §1, §2, §3, §4, §5"}, "[12]": {"set-up": "method as in PMID 32500882", "conditions": "cited from earlier work"}},
  "note": "Read-outs that look alike come from different tables or passages of the source.",
  "data": [
    {"smiles": "Cc1c(C)c(C)[c-](C)c1C.O=C(O)[C@@H]1CCC[NH+]1Cc1cc(Cl)c2ccc[n+]3c2c1[O][Rh]3[Cl].[Cl-]", "note": "[RhCp*-HQCl-L-Pro]", "values": [
      {"measurement": "log D7.4", "setting": "[1]; 100 mM chloride", "value": "+0.10 ± 0.01"},
      {"measurement": "conditional stability constant logK'", "setting": "[2]; calculated based on ref 12", "value": 12.98},
      {"measurement": "quenching constant logKQ'", "setting": "[3]", "value": 5.5},
      {"measurement": "DG marker displacement constant logKDG'", "setting": "[4]", "value": 5.6},
      {"measurement": "IC50", "setting": "[5]", "value": "26 ± 5", "unit": "µM"},
      {"measurement": "IC50", "setting": "[6]", "value": "10 ± 1", "unit": "µM"},
      {"measurement": "Selectivity ratio IC50 (Colo205)/IC50 (Colo320)", "setting": "[6]", "value": 2.66}
    ]},
    {"smiles": "Cc1c(C)c(C)[c-](C)c1C.[Cl][Rh]1[O]c2cccc3ccc[n+]1c23", "note": "[RhCp*-HQ]", "values": [
      {"measurement": "conditional stability constant logK'", "setting": "[2]; calculated based on ref 23", "value": 12.76}
    ]},
    {"smiles": "Oc1c(CN2CCCCC2)ccc2cccnc12", "note": "[7-(piperidin-1-ylmethyl)quinolin-8-ol]", "values": [
      {"measurement": "formal potential E'1/2 of the iron complexes", "setting": "[7]", "value": "+21 mV vs. NHE"}
    ]},
    {"smiles": "O=C(O)[C@@H]1CCCN1Cc1cc(Cl)c2cccnc2c1O", "note": "[HQCl-L-Pro, reference compound]", "values": [
      {"measurement": "fraction of negatively charged form", "setting": "[8]", "value": 36.5, "unit": "%"},
      {"measurement": "fraction of neutral form", "setting": "[8]", "value": 63.5, "unit": "%"},
      {"measurement": "solubility in water at physiological pH (S7.4)", "setting": "[9]", "value": "> 10", "unit": "mM"},
      {"measurement": "IC50", "setting": "[10]", "value": "23 ± 4", "unit": "µM"},
      {"measurement": "IC50", "setting": "[11]; 144 h exposure", "value": "4.3 ± 0.1", "unit": "µM"},
      {"measurement": "Selectivity ratio IC50 (MES-SA)/IC50 (MES-SA/Dx5)", "setting": "[11]; calculated from IC50 values in Table 4", "value": 5.41},
      {"measurement": "pKa (NProH+)", "setting": "[12]", "value": "> 11.5"},
      {"measurement": "pKa (OH)", "setting": "[12]", "value": 7.76},
      {"measurement": "log D7.4", "setting": "[1]; 4 mM chloride", "value": "+0.13 ± 0.09"},
      {"measurement": "IC50", "setting": "[5]", "value": "23 ± 3", "unit": "µM"},
      {"measurement": "IC50", "setting": "[6]", "value": "9 ± 2", "unit": "µM"},
      {"measurement": "Selectivity ratio IC50 (Colo205)/IC50 (Colo320)", "setting": "[6]", "value": 2.75}
    ]},
    {"smiles": "Oc1cccc2cccnc12", "note": "[8-hydroxyquinoline]", "values": [
      {"measurement": "formal potential E'1/2 of the iron complexes", "setting": "[7]", "value": "−323", "unit": "mV vs. NHE"}
    ]}
  ]
}
